{
  "source": "patent US12358932B2",
  "about": "“Chemical compounds” (BORAH, INC., priority 2019, dated 2025)",
  "data": [
    {"target": "T1, Recombinant human PDE4B (Homo sapiens, UniProt Q07343)", "T1 construct": "aa 305-end; GST (N); made in house; host or cells: Sf9 insect cells (baculovirus)", "T1 sequence (Q07343 305-736 limits assumed)": "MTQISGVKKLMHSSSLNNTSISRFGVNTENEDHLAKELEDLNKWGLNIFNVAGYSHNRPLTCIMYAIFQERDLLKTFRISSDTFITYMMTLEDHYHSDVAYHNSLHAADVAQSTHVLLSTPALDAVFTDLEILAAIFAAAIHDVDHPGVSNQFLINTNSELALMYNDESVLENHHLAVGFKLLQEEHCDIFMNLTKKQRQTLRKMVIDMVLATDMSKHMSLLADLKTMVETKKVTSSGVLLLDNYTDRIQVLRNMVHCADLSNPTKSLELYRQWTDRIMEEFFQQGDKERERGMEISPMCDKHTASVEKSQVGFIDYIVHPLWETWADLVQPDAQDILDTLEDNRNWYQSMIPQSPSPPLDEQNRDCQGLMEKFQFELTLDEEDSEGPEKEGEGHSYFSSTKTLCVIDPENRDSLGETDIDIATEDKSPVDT", "assay": "PDE4B Phosphodiesterase Assay", "assay_type": "biochemical", "design": "key to Activity Note: PDE4: The (+) symbols identify a compound of the present disclosure with the noted target activity; +*: The (*) symbols indicate preferential activity, where the greater number identifies the most preferred compounds; +**: The (*) symbols indicate preferential activity, where the greater number identifies the most preferred compounds; +***: The (*) symbols indicate preferential activity, where the greater number identifies the most preferred compounds", "conditions": "compound list; + = noted target activity", "method": "The assay is based on the fluorescence polarization measuring AMP/GMP production as a result of the enzyme activity by displacement of Tracer binding to the AMP/GMP antibody. • Reaction Buffer: 10 mM Tris-HCl, pH 7.5, 5 mM MgCl2, 0.01% Brij 35, 1 mM DTT and 1% DMSO. • Enzyme: Recombinant human PDE4B (Gene Accession #NM_002600; aa 305-end) was expressed by baculovirus in Sf9 insect cells using an N-terminal GST tag. Mw=78 kDa. • Substrate: 1 μM cAMP • Detection: Transcreener® AMP2/GMP2 Antibody AMP2/GMP2 AlexaFluor 633 Tracer Reaction Procedure: • 1. Prepared indicated enzyme and substrate in freshly prepared Reaction Buffer • 2. Delivered enzyme solution into the reaction well • 3. Delivered compounds in 100% DMSO into the enzyme solution by Acoustic technology (Echo550; nanoliter range), incubated for 10 min at room temperature • 4. Delivered substrate solution into the reaction well to initiate the reaction • 5. Incubated for 1 h at room temperature • 6. Added detection mixture (Tracer and antibody in the stop buffer) to stop the reaction and incubated for 90 min with gentle mixing. The fluorescence polarization was measured at Ex/Em 620/688.\nData Analysis: The FP signals were converted into nM product based on an AMP/GMP standard curve and calculated % Enzyme activity relative to DMSO control by Excel. The curve fit was performed using GraphPad prism.", "values": [
      {"smiles": "OB1OCc2cc(Nc3ncc(C(F)(F)F)c(NCc4ccccc4)n3)ccc21", "note": "[5-((4-(benzylamino)-5-(trifluoromethyl)pyrimidin-2-yl)amino)benzo[c][1,2]oxaborol-1(3H)-ol]", "Activity Note: PDE4": "+"},
      {"smiles": "Cc1cnc(Nc2ccc3c(c2)COB3O)nc1NC1CCC1", "note": "[5-((4-(cyclobutylamino)-5-methylpyrimidin-2-yl)amino)benzo[c][1,2]oxaborol-1(3H)-ol]", "Activity Note: PDE4": "+"},
      {"smiles": "Cc1cnc(Nc2ccc3c(c2)COB3O)nc1NC(C)c1ccccc1", "note": "(stereo not drawn) [5-((5-methyl-4-((1-phenylethyl)amino)pyrimidin-2-yl)amino)benzo[c][1,2]oxaborol-1(3H)-ol]", "Activity Note: PDE4": "+"},
      {"smiles": "OB1OCc2cc(Nc3ncc(Cl)c(NCc4ccccc4)n3)ccc21", "note": "[5-((4-(benzylamino)-5-chloropyrimidin-2-yl)amino)benzo[c][1,2]oxaborol-1(3H)-ol]", "Activity Note: PDE4": "+"},
      {"smiles": "CCC(CC)Sc1nc(Nc2ccc3c(c2)COB3O)ncc1C", "note": "[5-((5-methyl-4-(pentan-3-ylthio)pyrimidin-2-yl)amino)benzo[c][1,2]oxaborol-1(3H)-ol]", "Activity Note: PDE4": "+"},
      {"smiles": "CCC(CC)Nc1nc(Nc2ccc3c(c2)COB3O)ncc1C", "note": "[5-((5-methyl-4-(pentan-3-ylamino)pyrimidin-2-yl)amino)benzo[c][1,2]oxaborol-1(3H)-ol]", "Activity Note: PDE4": "+"},
      {"smiles": "OB1OCc2cc(Nc3ncc(F)c(NCCC4CC4)n3)ccc21", "note": "[5-((4-((2-cyclopropylethyl)amino)-5-fluoropyrimidin-2-yl)amino)benzo[c][1,2]oxaborol-1(3H)-ol]", "Activity Note: PDE4": "+"},
      {"smiles": "CCC(C)Nc1nc(Nc2ccc3c(c2)COB3O)ncc1F", "note": "(stereo not drawn) [5-((4-(sec-butylamino)-5-fluoropyrimidin-2-yl)amino)benzo[c][1,2]oxaborol-1(3H)-ol]", "Activity Note: PDE4": "+"},
      {"smiles": "OB1OCc2cc(Nc3ncc(Cl)c(NC4CCCCC4)n3)ccc21", "note": "[5-((5-chloro-4-(cyclohexylamino)pyrimidin-2-yl)amino)benzo[c][1,2]oxaborol-1(3H)-ol]", "Activity Note: PDE4": "+"},
      {"smiles": "OB1OCc2cc(Nc3ncc(C(F)(F)F)c(NC4CCCC4)n3)ccc21", "note": "[5-((4-(cyclopentylamino)-5-(trifluoromethyl)pyrimidin-2-yl)amino)benzo[c][1,2]oxaborol-1(3H)-ol]", "Activity Note: PDE4": "+"},
      {"smiles": "CCCNc1nc(Nc2ccc3c(c2)COB3O)ncc1C=O", "note": "[2-((1-hydroxy-1,3-dihydrobenzo[c][1,2]oxaborol-5-yl)amino)-4-(propylamino)pyrimidine-5-carbaldehyde]", "Activity Note: PDE4": "+"},
      {"smiles": "Cc1cnc(Nc2ccc3c(c2)COB3O)nc1NCCC1CC1", "note": "[5-((4-((2-cyclopropylethyl)amino)-5-methylpyrimidin-2-yl)amino)benzo[c][1,2]oxaborol-1(3H)-ol]", "Activity Note: PDE4": "+"},
      {"smiles": "CCCC(CC)Nc1nc(Nc2ccc3c(c2)COB3O)ncc1C", "note": "(stereo not drawn) [5-((4-(hexan-3-ylamino)-5-methylpyrimidin-2-yl)amino)benzo[c][1,2]oxaborol-1(3H)-ol]", "Activity Note: PDE4": "+"},
      {"smiles": "CCc1ccccc1Nc1nc(Nc2ccc3c(c2)COB3O)ncc1C", "note": "[5-((4-((2-ethylphenyl)amino)-5-methylpyrimidin-2-yl)amino)benzo[c][1,2]oxaborol-1(3H)-ol]", "Activity Note: PDE4": "+"},
      {"smiles": "Cc1cnc(N(C)c2ccc3c(c2)COB3O)nc1OC1CCCCC1", "note": "[drawing 151, 5-((4-(cyclohexyloxy)-5-methylpyrimidin-2-yl)(methyl)amino)benzo[c][1,2]oxaborol-1(3H)-ol]", "Activity Note: PDE4": "+"},
      {"smiles": "Cc1cnc(Nc2ccc3c(c2)COB3O)nc1NC1CCCC1", "note": "[5-((4-(cyclopentylamino)-5-methylpyrimidin-2-yl)amino)benzo[c][1,2]oxaborol-1(3H)-ol]", "Activity Note: PDE4": "+"},
      {"smiles": "Cc1cnc(Nc2ccc3c(c2)COB3O)nc1NC(CCO)CCO", "note": "[3-((2-((1-hydroxy-1,3-dihydrobenzo[c][1,2]oxaborol-5-yl)amino)-5-methylpyrimidin-4-yl)amino)pentane-1,5-diol]", "Activity Note: PDE4": "+"},
      {"smiles": "CCC(C)Nc1nc(Nc2ccc3c(c2)COB3O)ncc1Cl", "note": "(stereo not drawn) [5-((4-(sec-butylamino)-5-chloropyrimidin-2-yl)amino)benzo[c][1,2]oxaborol-1(3H)-ol]", "Activity Note: PDE4": "+"},
      {"smiles": "Cc1cnc(Nc2ccc3c(c2)COB3O)nc1SC1CCCCC1", "note": "[5-((4-(cyclohexylthio)-5-methylpyrimidin-2-yl)amino)benzo[c][1,2]oxaborol-1(3H)-ol]", "Activity Note: PDE4": "+"},
      {"smiles": "CCC(CC)Nc1ccnc(Nc2ccc3c(c2)COB3O)n1", "note": "[5-((4-(pentan-3-ylamino)pyrimidin-2-yl)amino)benzo[c][1,2]oxaborol-1(3H)-ol]", "Activity Note: PDE4": "+"},
      {"smiles": "CCC(C)Nc1nc(Nc2ccc3c(c2)COB3O)ncc1C", "note": "(stereo not drawn) [5-((4-(sec-butylamino)-5-methylpyrimidin-2-yl)amino)benzo[c][1,2]oxaborol-1(3H)-ol]", "Activity Note: PDE4": "+"},
      {"smiles": "Cc1ccccc1Nc1nc(Nc2ccc3c(c2)COB3O)ncc1C", "note": "[5-((5-methyl-4-(o-tolylamino)pyrimidin-2-yl)amino)benzo[c][1,2]oxaborol-1(3H)-ol]", "Activity Note: PDE4": "+"},
      {"smiles": "CCCNc1nc(Nc2ccc3c(c2)COB3O)ncc1C(F)(F)F", "note": "[5-((4-(propylamino)-5-(trifluoromethyl)pyrimidin-2-yl)amino)benzo[c][1,2]oxaborol-1(3H)-ol]", "Activity Note: PDE4": "+"},
      {"smiles": "CCCNc1nc(Nc2ccc3c(c2)COB3O)ncc1C", "note": "[5-((5-methyl-4-(propylamino)pyrimidin-2-yl)amino)benzo[c][1,2]oxaborol-1(3H)-ol]", "Activity Note: PDE4": "+"},
      {"smiles": "CCCNc1nc(Nc2ccc3c(c2)COB3O)ncc1Cl", "note": "[5-((5-chloro-4-(propylamino)pyrimidin-2-yl)amino)benzo[c][1,2]oxaborol-1(3H)-ol]", "Activity Note: PDE4": "+"},
      {"smiles": "Cc1cnc(Nc2ccc3c(c2)COB3O)nc1Nc1ccccc1", "note": "[5-((5-methyl-4-(phenylamino)pyrimidin-2-yl)amino)benzo[c][1,2]oxaborol-1(3H)-ol]", "Activity Note: PDE4": "+"},
      {"smiles": "CCC(CC)Nc1nc(Nc2cc(F)c3c(c2)COB3O)ncc1C", "note": "[7-fluoro-5-((5-methyl-4-(pentan-3-ylamino)pyrimidin-2-yl)amino)benzo[c][1,2]oxaborol-1(3H)-ol]", "Activity Note: PDE4": "+"},
      {"smiles": "OB1OCc2cc(Nc3ncc(Cl)c(NCCC4CC4)n3)ccc21", "note": "[5-((5-chloro-4-((2-cyclopropylethyl)amino)pyrimidin-2-yl)amino)benzo[c][1,2]oxaborol-1(3H)-ol]", "Activity Note: PDE4": "+"},
      {"smiles": "CCC(CC)Oc1nc(Nc2ccc3c(c2)COB3O)ncc1C", "note": "[5-((5-methyl-4-(pentan-3-yloxy)pyrimidin-2-yl)amino)benzo[c][1,2]oxaborol-1(3H)-ol]", "Activity Note: PDE4": "+"},
      {"smiles": "CCC(CCOC)Nc1nc(Nc2ccc3c(c2)COB3O)ncc1C(F)(F)F", "note": "(stereo not drawn) [5-((4-((1-methoxypentan-3-yl)amino)-5-(trifluoromethyl)pyrimidin-2-yl)amino)benzo[c][1,2]oxaborol-1(3H)-ol]", "Activity Note: PDE4": "+"},
      {"smiles": "OB1OCc2cc(Nc3nccc(NC4CCCCC4)n3)ccc21", "note": "[5-((4-(cyclohexylamino)pyrimidin-2-yl)amino)benzo[c][1,2]oxaborol-1(3H)-ol]", "Activity Note: PDE4": "+"},
      {"smiles": "CCCC(CC)Nc1nc(Nc2ccc3c(c2)COB3O)ncc1C(F)(F)F", "note": "(stereo not drawn) [5-((4-(hexan-3-ylamino)-5-(trifluoromethyl)pyrimidin-2-yl)amino)benzo[c][1,2]oxaborol-1(3H)-ol]", "Activity Note: PDE4": "+"},
      {"smiles": "Cc1cnc(Nc2ccc3c(c2)COB3O)nc1NC1CCOC(O)C1", "note": "(stereo not drawn) [5-((4-((2-hydroxytetrahydro-2H-pyran-4-yl)amino)-5-methylpyrimidin-2-yl)amino)benzo[c][1,2]oxaborol-1(3H)-ol]", "Activity Note: PDE4": "+"}
    ]}
  ]
}
